From patent publication US20230031406A1, “COMPOUNDS AND COMPOSITIONS FOR TREATING CONDITIONS ASSOCIATED WITH NLRP ACTIVITY” (Novartis AG, priority 2018, published 2023)
Read-outs that look alike come from different tables or passages of the source.

Test system: PMA-differentiated THP-1 cells
Test: IL-1β production in PMA-differentiated THP-1 cells stimulated with gramicidin (hTHP-1 assay containing 2% fetal bovine serum; Procedures 1 and 2)
Type: cell-based, human
Details: 2% fetal bovine serum
How it was run: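 Human monocytic THP-1 cells, matured overnight with PMA at 20 ng/ml, are seeded in low-serum (2% FBS) RPMI. Test compounds, at final concentrations from 100 down to 0.0017 μM, precede gramicidin (5 μM, 2 h) by one hour. Released IL-1β is then determined by HTRF.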

[1] = Homo sapiens, THP-1, Table B1, class symbols, read-out: Average IC50 of compounds in hTHP-1 assay: hTHP-1 IC50
[2] = Homo sapiens, THP-1, Table B3, hTHP-1 assay, class symbols, read-out: IC50
[3] = Table B3, hTHP-1 assay, class symbols, read-out: IC50
[4] = Homo sapiens, THP-1, Table B2, class symbols, read-out: hTHP-1 IC50
[5] = Table B2, class symbols, read-out: hTHP-1 IC50
[6] = Table B1, class symbols, read-out: Average IC50 of compounds in hTHP-1 assay: hTHP-1 IC50
[7] = Table B4, class symbols, read-out: hTHP-1 IC50

Molecule `CC1CCc2c1nc1c(c2NC(=O)N=S(N)(=O)c2ccn(C(C)C)n2)CCC1` (stereo not shown) [Compound 129, 1-isopropyl-N′-((3-methyl-1,2,3,5,6,7-hexahydrodicyclopenta[b,e]pyridin-8-yl)carbamoyl)-1H-pyrazole-3-sulfonimidamide] has an IC50 [1] of 200 to 1000 nM.
With `C[C@@H]1CCc2c1nc1c(c2NC(=O)N=[S@](N)(=O)c2cc([C@@H](C)O)cs2)CCC1` (single isomer, unassigned) [Example 661, (S)-4-((R) or (S)-1-hydroxyethyl)-N′-(((R)-3-methyl-1,2,3,5,6,7-hexahydrodicyclopenta[b,e]pyridin-8-yl)carbamoyl) thiophene-2-sulfonimidamide] the IC50 [2] was 1000 to 5000 nM.
Molecule `NS(=O)(=NC(=O)Nc1c2c(nc3c1CCC31CC1)CCC2)c1nn(C(F)F)cc1F` (single isomer, unassigned) [Example 682, (S) or (R)-1-(difluoromethyl)-4-fluoro-N′-((1′,5′,6′,7′-tetrahydro-2′H-spiro[cyclopropane-1,3′-dicyclopenta[b,e]pyridin]-8′-yl)carbamoyl)-1H-pyrazole-3-sulfonimidamide] has an IC50 [3] of 1000 to 5000 nM.
Molecule `CC1(C)CCc2c1nc1c(c2NC(=O)N=S(N)(=O)c2cnc(C(C)(CO)CO)s2)CCC1` (stereo not shown) [Compound 724] has an IC50 [4] of 200 to 1000 nM.
For `C[C@@](O)(CO)c1cc(F)c([S@](N)(=O)=NC(=O)Nc2c3c(nc4c2CCC42CC2)CCC3)s1` [Example 676, (R)-5-((R)-1,2-dihydroxypropan-2-yl)-3-fluoro-N′-((1′,5′,6′,7′-tetrahydro-2′H-spiro[cyclopropane-1,3′-dicyclopenta[b,e]pyridin]-8′-yl)carbamoyl)thiophene-2-sulfonimidamide], the IC50 [2] was 200 to 1000 nM.
Work on `CC(=O)c1csc(S(N)(=O)=NC(=O)Nc2c3c(nc4c2CC[C@H]4C)CCC3)c1` (single isomer, unassigned) [Example 666, (S) or (R)-4-acetyl-N′-(((R)-3-methyl-1,2,3,5,6,7-hexahydrodicyclopenta[b,e]pyridin-8-yl)carbamoyl)thiophene-2-sulfonimidamide] yielded an IC50 [3] of 5000 to 30000 nM.
In the case of `CCn1cc(F)c(S(N)(=O)=NC(=O)Nc2c3c(nc4c2CC[C@@H]4C)CCC3)n1` (single isomer, unassigned) [Example 712, (S) or (R)-1-ethyl-4-fluoro-N′-(((S)-3-methyl-1,2,3,5,6,7-hexahydrodicyclopenta[b,e]pyridin-8-yl)carbamoyl)-1H-pyrazole-3-sulfonimidamide], the IC50 [3] is reported as 5000 to 30000 nM.
With `CC(C)(O)c1csc(S(N)(=O)=NC(=O)Nc2cc(CC(F)(F)F)nc3c2CCC3)c1` (single isomer, unassigned) [Compound 607a, (S) or (R)-4-(2-Hydroxypropan-2-yl)-N′-((2-(2,2,2-trifluoroethyl)-6,7-dihydro-5H-cyclopenta[b]pyridin-4-yl)carbamoyl) thiophene-2-sulfonimidamide] the IC50 (Homo sapiens, THP-1, Table B2, numeric bounds, read-out: hTHP-1 IC50) was greater than 30000 nM.
For `CC(C)(O)c1sc(S(N)(=O)=NC(=O)Nc2c3c(nc4c2CCC4(C)C)CCC3)cc1F` (single isomer, unassigned) [Compound 613a, (R) or (S)-N′-((3,3-dimethyl-1,2,3,5,6,7-hexahydrodicyclopenta [b,e]pyridin-8-yl)carbamoyl)-4-fluoro-5-(2-hydroxypropan-2-yl)thiophene-2-sulfonimidamide], the IC50 [5] was 40 to 200 nM.
`NS(=O)(=NC(=O)Nc1c2c(nc3c1CCC3)CCC2)c1ccn(CC(F)(F)F)n1` (single isomer, unassigned) [Compound 685b, (R) or (S)-N′-((1,2,3,5,6,7-hexahydrodicyclopenta [b,e]pyridin-8-yl)carbamoyl)-1-(2,2,2-trifluoroethyl)-1H-pyrazole-3-sulfonimidamide] showed an IC50 [4] of 1000 to 5000 nM.
`CC(C)(O)c1nc(CO)c(S(N)(=O)=NC(=O)Nc2c3c(nc4c2CCC4)CCC3)s1` (single isomer, unassigned) [Compound 150a, (S) or (R)-N′-((1,2,3,5,6,7-hexahydrodicyclo-penta[b,e]pyridin-8-yl)carbamoyl)-4-(hydroxymethyl)-2-(2-hydroxypropan-2-yl)thiazole-5-sulfonimidamide] gave an IC50 [6] of 5000 to 30000 nM.
Molecule `Cc1nc2c(c(NC(=O)N=S(N)(=O)c3cnc(C(C)(C)O)s3)c1C)CCC2` (stereo not shown) [Compound 138, N′-((2,3-dimethyl-6,7-dihydro-5H-cyclopenta[b]pyridin-4-yl)carbamoyl)-2-(2-hydroxypropan-2-yl)thiazole-5-sulfonimidamide] has an IC50 [1] of 5000 to 30000 nM.
`Cc1c(C(C)C)nc2c(c1NC(=O)N=S(N)(=O)c1cc(C(C)(C)O)cs1)CCC2` (single isomer, unassigned) [Compound 681a, (S) or (R)-4-(2-Hydroxypropan-2-yl)-N′-((2-isopropyl-3-methyl-6,7-dihydro-5H-cyclopenta[b]pyridin-4-yl)carbamoyl) thiophene-2-sulfonimidamide] was tested, and the IC50 [5] was 1000 to 5000 nM.
Work on `CC1(C)CCc2c1nc1c(c2NC(=O)N=S(N)(=O)c2cnc(C(C)(O)CO)s2)CCC1` (stereo not shown) [Compound 201, 2-(1,2-Dihydroxypropan-2-yl)-N′-((3,3-dimethyl-1,2,3,5,6,7-hexahydrodicyclopenta [b,e]pyridin-8-yl)carbamoyl)thiazole-5-sulfonimidamide] yielded an IC50 [5] of 200 to 1000 nM.
In the case of `CCc1ncc(S(N)(=O)=NC(=O)Nc2c3c(nc4c2CC[C@H]4C)CCC3)s1` (stereo partly drawn) [Example 629, 2-Ethyl-N′-(((R)-3-methyl-1,2,3,5,6,7-hexahydrodicyclopenta[b,e]pyridin-8-yl)carbamoyl)thiazole-5-sulfonimidamide], the IC50 [2] is reported as 200 to 1000 nM.
`CCc1ncc(S(N)(=O)=NC(=O)Nc2c3c(nc4c2CC[C@H]4C)CCC3)s1` (single isomer, unassigned) [Example 674, (R) or (S)-2-ethyl-N′-(((R)-3-methyl-1,2,3,5,6,7-hexahydrodicyclopenta[b,e]pyridin-8-yl)carbamoyl) thiazole-5-sulfonimidamide] was tested, and the IC50 [3] was 200 to 1000 nM.
In the case of `NS(=O)(=NC(=O)Nc1c2c(nc(C3CC3)c1C1CC1)CCC2)c1nn(C(F)F)cc1F` (single isomer, unassigned) [Example 763, (R) or (S)-N′-((2,3-dicyclopropyl-6,7-dihydro-5H-cyclopenta[b]pyridin-4-yl)carbamoyl)-1-(difluoromethyl)-4-fluoro-1H-pyrazole-3-sulfonimidamide], the IC50 [7] is reported as 200 to 1000 nM.
Molecule `CCn1cc(F)c(S(N)(=O)=NC(=O)Nc2c3c(nc(C(F)(F)F)c2-c2cccc(F)c2)CCC3)n1` (stereo not shown) [Example 747, 1-Ethyl-4-fluoro-N′-((3-(3-fluorophenyl)-2-(trifluoromethyl)-6,7-dihydro-5H-cyclopenta[b]pyridin-4-yl)cathamoyl)-1H-pyrazole-3-sulfonimidamide] has an IC50 [7] of 8 to 40 nM.
In the case of `CC1(C)CCc2c1nc1c(c2NC(=O)N=S(N)(=O)c2ccn(C(F)F)n2)CCC1` (single isomer, unassigned) [Compound 122b, (S) or (R)-1-(difluoromethyl)-N′-((3,3-dimethyl-1,2,3,5,6,7-hexahydrodicyclo-penta[b,e]pyridin-8-yl)carbamoyl)-1H-pyrazole-3-sulfonimidamide], the IC50 [6] is reported as 5000 to 30000 nM.
In the case of `CC(C)(O)c1csc(S(N)(=O)=NC(=O)Nc2cc(C(F)(F)F)nc3c2CCC3)c1` (single isomer, unassigned) [Example 668, (S) or (R)-4-(2-hydroxypropan-2-yl)-N′-((2-(trifluoromethyl)-6,7-dihydro-5H-cyclopenta[b]pyridin-4-yl)carbamoyl)thiophene-2-sulfonimidamide], the IC50 (Homo sapiens, THP-1, Table B3, hTHP-1 assay, numeric values, read-out: IC50) is reported as greater than 30000 nM.
Molecule `CCn1cc(F)c(S(N)(=O)=NC(=O)Nc2c(C)c(CC(F)(F)F)nc3c2CCC3)n1` (single isomer, unassigned) [Example 717, (R) or (S)-1-ethyl-4-fluoro-N′-((3-methyl-2-(2,2,2-trifluoroethyl)-6,7-dihydro-5H-cyclopenta[b]pyridin-4-yl)carbamoyl)-1H-pyrazole-3-sulfonimidamide] has an IC50 [2] of 1000 to 5000 nM.
Work on `NS(=O)(=NC(=O)Nc1c2c(nc(C(F)(F)F)c1C1CC1)CCC2)c1nn(C(F)F)cc1F` (stereo not shown) [Example 615, N′-((3-cyclopropyl-2-(trifluoromethyl)-6,7-dihydro-5H-cyclopenta[b]pyridin-4-yl)carbamoyl)-1-(difluoromethyl)-4-fluoro-1H-pyrazole-3-sulfonimidamide] yielded an IC50 [3] of 200 to 1000 nM.
With `Cc1c(C2CC2)nc2c(c1NC(=O)N=S(N)(=O)c1cc(C(C)(C)O)cs1)CCC2` (single isomer, unassigned) [Compound 175b, (S) or (R)-N′-((2-cyclopropyl-3-methyl-6,7-dihydro-5H-cyclopenta[b]pyridin-4-yl)carbamoyl)-4-(2-hydroxy-propan-2-yl)thiophene-2-sulfonimidamide] the IC50 [6] was 200 to 1000 nM.
With `CC1CCc2c1nc1c(c2NC(=O)N=S(N)(=O)c2sc(C(C)(C)O)cc2F)CCC1` (single isomer, unassigned) [Compound 103aa, (S,R) or (S,S)-3-fluoro-5-(2-hydroxypropan-2-yl)-N′-((3-methyl-1,2,3,5,6,7-hexahydrodicyclo-penta[b,e]pyridin-8-yl)carbamoyl)thiophene-2-sulfonimidamide] the IC50 [6] was 1000 to 5000 nM.
In the case of `CC(C)(O)c1ncc(S(N)(=O)=NC(=O)Nc2c3c(nc4c2CCC4)CCCC3)s1` (single isomer, unassigned) [Compound 161a, (S) or (R)-N′-((2,3,5,6,7,8-hexahydro-1H-cyclopenta[b]quinolin-9-yl)carbamoyl)-2-(2-hydroxypropan-2-yl)thiazole-5-sulfonimidamide], the IC50 [6] is reported as 5000 to 30000 nM.
